This assay concerns P388 leukemia ip, CD2F1 mice, survival T/C. Description: NCI In Vivo Anticancer Drug Screen. Data for tumor model P388 Leukemia (intraperitoneal) in CD2F1 (CDF1) mice. The settings on record: endpoint: median survival time, higher = longer survival. The gist of the method: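 Mice carrying the transplanted tumor received test compound or vehicle. Survival was recorded in each group, and the value is the treated-group measurement divided by that of the vehicle-treated control group.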

The mark [1] stands for this setting: dose: 60.0 mg/kg/injection, schedule: Q01DX005 (ip), vehicle: saline with Tween-80.
Setting [2] is: dose: 50.0 mg/kg/injection, schedule: Q01DX009 (ip), vehicle: saline.
Where [3] appears, read: dose: 100.0 mg/kg/injection, schedule: Q01DX009 (ip), vehicle: saline.
[4] abbreviates: dose: 50.0 mg/kg/injection, schedule: Q01DX005 (ip), vehicle: Klucel (hydroxypropylcellulose) (HPC).
The mark [5] stands for this setting: dose: 100.0 mg/kg/injection, schedule: Q01DX005 (ip), vehicle: Klucel (hydroxypropylcellulose) (HPC).
The mark [6] stands for this setting: dose: 200.0 mg/kg/injection, schedule: Q01DX005 (ip), vehicle: Klucel (hydroxypropylcellulose) (HPC).
[7] abbreviates: dose: 100.0 mg/kg/injection, schedule: Q04DX002 (ip), vehicle: saline.
Where [8] appears, read: dose: 12.5 mg/kg/injection, schedule: Q01DX009 (ip), vehicle: saline.
Where [9] appears, read: dose: 25.0 mg/kg/injection, schedule: Q01DX009 (ip), vehicle: saline.
Where [10] appears, read: dose: 100.0 mg/kg/injection, schedule: Q01DX001 (ip), vehicle: Klucel (hydroxypropylcellulose) (HPC).
Where [11] appears, read: dose: 200.0 mg/kg/injection, schedule: Q01DX001 (ip), vehicle: Klucel (hydroxypropylcellulose) (HPC).
[12] abbreviates: dose: 50.0 mg/kg/injection, schedule: Q01DX009 (ip), vehicle: saline with Tween-80.
Setting [13] is: dose: 100.0 mg/kg/injection, schedule: Q01DX009 (ip), vehicle: saline with Tween-80.
[14] abbreviates: dose: 50.0 mg/kg/injection, schedule: Q01DX009 (ip), vehicle: Klucel (hydroxypropylcellulose) (HPC).
Setting [15] is: dose: 100.0 mg/kg/injection, schedule: Q01DX009 (ip), vehicle: Klucel (hydroxypropylcellulose) (HPC).
Where [16] appears, read: dose: 50.0 mg/kg/injection, schedule: Q04DX003 (ip), vehicle: saline with Tween-80.
Setting [17] is: dose: 100.0 mg/kg/injection, schedule: Q04DX003 (ip), vehicle: saline with Tween-80.
The mark [18] stands for this setting: dose: 200.0 mg/kg/injection, schedule: Q04DX003 (ip), vehicle: saline with Tween-80.

Where “and” joins values, the source holds several entries; their conditions need not be identical. Equal entries are not always repeated. Inconclusive results and toxic doses are left out. Peptide text beside a SMILES is read from it.

As to `Nc1ccc2c(SCCCCCCSc3c4ccccc4nc4cc(N)ccc34)c3ccccc3nc2c1`, the T/C is 100 % of control under setting [1]; 101 % of control (dose: 120.0 mg/kg/injection, schedule: Q01DX005 (ip), vehicle: saline with Tween-80); 104 % of control (dose: 240.0 mg/kg/injection, schedule: Q01DX005 (ip), vehicle: saline with Tween-80).

For `O=c1cccc(O)[nH]1`, the T/C by setting is: under setting [2], 109 % of control and 94 % of control; under setting [3], 100 % of control and 93 % of control.

In the case of `NC(Cc1ccccc1)C(=O)NC(CCC(=O)O)C(=O)NC(CCC(=O)O)C(=O)O` (stereo not drawn) (H-Phe-Glu-Glu-OH; configuration not given here), the T/C under setting [4] is 103 % of control, the T/C under setting [5] was 100 % of control and the T/C under setting [6] was 96 % of control.

For `Cc1ccc(N2[C@H]3CCCN3c3ccc(C)cc3[C@@H]2C(F)(F)F)cc1`, the T/C (dose: 50.0 mg/kg/injection, schedule: Q01DX005 (ip), vehicle: saline with Tween-80) is 110 % of control; the T/C (dose: 100.0 mg/kg/injection, schedule: Q01DX005 (ip), vehicle: saline with Tween-80) was 100 % of control; the T/C (dose: 200.0 mg/kg/injection, schedule: Q01DX005 (ip), vehicle: saline with Tween-80) was 100 % of control.

On to `COc1ccc2c(c1)N(C(=O)CNC(C)(C)C)c1ccccc1S2`, for which the T/C by setting is: under setting [7], 117 % of control; (dose: 200.0 mg/kg/injection, schedule: Q04DX002 (ip), vehicle: saline) 99 % of control.

On to `Cc1ccc(S(=O)(=O)OC2CCC3(C)C(CCC4C3CCC3(C)C(C(C)CCCC(C)C)CCC43)C2)cc1` (stereo unspecified), for which the T/C is 107 % of control (dose: 3.0 mg/kg/injection, schedule: Q01DX005 (ip), vehicle: Klucel (hydroxypropylcellulose) (HPC)); 117 % of control (dose: 6.0 mg/kg/injection, schedule: Q01DX005 (ip), vehicle: Klucel (hydroxypropylcellulose) (HPC)); 100 % of control (dose: 12.5 mg/kg/injection, schedule: Q01DX005 (ip), vehicle: Klucel (hydroxypropylcellulose) (HPC)).

With `O=C(O)c1c(-c2ccccc2)nn(-c2ccccc2)c1-c1ccccc1`, the T/C was 108 % of control (dose: 50.0 mg/kg/injection, schedule: Q04DX003 (ip), vehicle: suspension in saline); 106 % of control (dose: 100.0 mg/kg/injection, schedule: Q04DX003 (ip), vehicle: suspension in saline); 102 % of control (dose: 200.0 mg/kg/injection, schedule: Q04DX003 (ip), vehicle: suspension in saline).

As to `COc1ccc(OC(=O)Nc2ccc(Cl)c(C(F)(F)F)c2)c(Cl)c1`, the T/C runs as follows: (dose: 1.56 mg/kg/injection, schedule: Q01DX009 (ip), vehicle: saline) 100 % of control; (dose: 3.12 mg/kg/injection, schedule: Q01DX009 (ip), vehicle: saline) 94 % of control; (dose: 6.25 mg/kg/injection, schedule: Q01DX009 (ip), vehicle: saline) 88 % of control and 95 % of control; under setting [8], 96 % of control; under setting [9], 93 % of control; (dose: 100.0 mg/kg/injection, schedule: Q01DX009 (ip), vehicle: saline + alcohol) 101 % of control. In addition, where the note is “dose: 200.0 mg/kg/injection, schedule: Q01DX009 (ip), vehicle: saline + alcohol”, the T/C is 100 % of control.

Turning to `CCN(CC)C(=O)Cn1cc([N+](=O)[O-])sc1=NC(=O)c1ccco1`, the T/C is 100 % of control under setting [10] and 101 % of control under setting [11].

Regarding `C[n+]1noc([O-])c1-c1ccccc1`, the T/C is, setting by setting: under setting [12], 102 % of control; under setting [13], 104 % of control.

With `CC(=N\O)/C(=N\O)C(=O)c1ccccc1`, the T/C by setting is: under setting [12], 95 % of control; under setting [13], 90 % of control; (dose: 200.0 mg/kg/injection, schedule: Q01DX009 (ip), vehicle: saline with Tween-80) 90 % of control.

As to `COc1cc(C(=O)OC2c3ccccc3CCC2N(C)C)cc(OC)c1OC` (stereo unspecified), the T/C is, setting by setting: (dose: 25.0 mg/kg/injection, schedule: Q01DX009 (ip), vehicle: saline with Tween-80) 98 % of control; under setting [12], 91 % of control.

On to `Cc1ncc(CO)n1Cc1ccc(Cl)cc1`, for which the T/C by setting is: under setting [14], 104 % of control; under setting [15], 99 % of control; (dose: 200.0 mg/kg/injection, schedule: Q01DX009 (ip), vehicle: Klucel (hydroxypropylcellulose) (HPC)) 94 % of control.

Turning to `CC(=O)OCC1OC(n2cc(F)c(=O)[nH]c2=O)C(OC(C)=O)C1OC(C)=O` (stereo unspecified), the T/C is, setting by setting: (dose: 1.56 mg/kg/injection, schedule: Q01DX009 (ip), vehicle: Klucel (hydroxypropylcellulose) (HPC)) 110 % of control; (dose: 6.25 mg/kg/injection, schedule: Q01DX009 (ip), vehicle: Klucel (hydroxypropylcellulose) (HPC)) 151 % of control; (dose: 12.5 mg/kg/injection, schedule: Q01DX009 (ip), vehicle: Klucel (hydroxypropylcellulose) (HPC)) 108 % of control; (dose: 25.0 mg/kg/injection, schedule: Q01DX009 (ip), vehicle: Klucel (hydroxypropylcellulose) (HPC)) 89 % of control; under setting [14], 89 % of control; under setting [15], 88 % of control.

As for `CCCCCCCCC[N+]1([O-])CCCCCC1`, the T/C under setting [8] was 100 % of control; the T/C under setting [9] is 99 % of control; the T/C under setting [2] was 105 % of control and 107 % of control.

On to `CNC(=O)n1cc(Cl)ccc1=O`, for which the T/C was 100 % of control and 108 % of control under setting [2]; 100 % of control and 107 % of control under setting [3]; 119 % of control (dose: 200.0 mg/kg/injection, schedule: Q01DX009 (ip), vehicle: saline).

Take `CN(C)c1cccc2c(S(=O)(=O)Cl)cccc12`: the T/C is 106 % of control (dose: 25.0 mg/kg/injection, schedule: Q04DX003 (ip), vehicle: saline with Tween-80); 114 % of control under setting [16]; 110 % of control under setting [17]; 124 % of control under setting [18].

For `CCCCCCNP1(NCCCCCC)=NP(NCCCCCC)(NCCCCCC)=NP(NCCCCCC)(NCCCCCC)=NP(NCCCCCC)(NCCCCCC)=N1`, the T/C (dose: 37.5 mg/kg/injection, schedule: Q01DX005 (ip), vehicle: Klucel (hydroxypropylcellulose) (HPC)) is 90 % of control and the T/C (dose: 75.0 mg/kg/injection, schedule: Q01DX005 (ip), vehicle: Klucel (hydroxypropylcellulose) (HPC)) was 97 % of control.

`O=C(O)c1cn2c(n1)sc1ccccc12`: the T/C by setting is: under setting [10], 97 % of control; under setting [11], 92 % of control; (dose: 400.0 mg/kg/injection, schedule: Q01DX001 (ip), vehicle: Klucel (hydroxypropylcellulose) (HPC)) 96 % of control.

For `O=C(Nc1ccc(Cl)cc1)Sc1nnc2c(n1)[nH]c1ccccc12`, the T/C is, setting by setting: under setting [4], 103 % of control; under setting [5], 111 % of control; under setting [6], 103 % of control.

For the compound `[Cl][Sn][Cl].c1cnc2c(c1)ccc1cccnc12`, the T/C was 97 % of control under setting [17] and 112 % of control under setting [18].

With `ClC(Cl)(Cl)C(=NNc1ccccc1)C(Cl)(Cl)Cl`, the T/C was 104 % of control (dose: 15.0 mg/kg/injection, schedule: Q01DX005 (ip), vehicle: saline with Tween-80); 104 % of control (dose: 30.0 mg/kg/injection, schedule: Q01DX005 (ip), vehicle: saline with Tween-80); 105 % of control and 110 % of control under setting [1].

Consider `CN1C(Sc2ccccc2)=NN(c2ccccc2)CN1c1ccccc1`, for which the T/C under setting [16] is 93 % of control, the T/C under setting [17] was 97 % of control and the T/C under setting [18] was 88 % of control.

For the compound `NC1=NC(O)(c2ccccc2)C(O)(c2ccccc2)N1` (stereo unspecified), the T/C is, setting by setting: (dose: 25.0 mg/kg/injection, schedule: Q04DX002 (ip), vehicle: saline) 98 % of control; (dose: 50.0 mg/kg/injection, schedule: Q04DX002 (ip), vehicle: saline) 97 % of control; under setting [7], 98 % of control.

For the compound `O=c1c(N=Nc2ccc(Br)cc2)c(O)n(-c2ccc(Cl)cc2)c(=S)n1-c1ccc(Br)cc1`, the T/C (dose: 100.0 mg/kg/injection, schedule: Q01DX001 (ip), vehicle: saline with Tween-80) is 96 % of control; the T/C (dose: 200.0 mg/kg/injection, schedule: Q01DX001 (ip), vehicle: saline with Tween-80) was 95 % of control; the T/C (dose: 400.0 mg/kg/injection, schedule: Q01DX001 (ip), vehicle: saline with Tween-80) is 89 % of control.

Values taken from PubChem BioAssay AID330 (DTP/NCI, 2004).
